The text below walks through data of US12180192B2, “Modulators of THR-β and methods of use thereof” (ALIGOS THERAPEUTICS, INC., priority 2019, dated 2024).

In assay [1] the target is T1, human thyroid receptor beta ligand-binding domain (LBD) (Homo sapiens, UniProt P10828).
T1 construct: purchased Invitrogen
T1 sequence (P10828 217-461 limits assumed): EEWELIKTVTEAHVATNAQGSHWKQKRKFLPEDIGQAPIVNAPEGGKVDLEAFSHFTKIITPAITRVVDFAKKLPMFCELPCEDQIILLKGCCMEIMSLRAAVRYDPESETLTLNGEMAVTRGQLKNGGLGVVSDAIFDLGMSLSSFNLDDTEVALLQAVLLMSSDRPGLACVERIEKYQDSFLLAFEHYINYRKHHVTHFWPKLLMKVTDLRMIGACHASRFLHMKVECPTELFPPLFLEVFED
In words: TR-FRET thyroid receptor beta coactivator assay (THR biochemical assay, Assay 1). The settings on record: for EC50: THR-beta, TR-FRET coactivator assay, read-out: Activity category Assay 1 (EC50, THR-beta agonist); for Emax: read-out: Activity category Assay 1 THRβ (Emax). Put shortly: (§1)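 GST-tagged human TRβ or TRα LBD, 1 nM final (stated for β), with fluorescein-SRC2-2 coactivator peptide (200 nM) and Tb-anti-GST antibody (2 nM). Agonists serially diluted, 1% DMSO final. 1 h incubation at rt in the dark; TR-FRET read as rise in fluorescein and drop in terbium emission.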
(TR-FRET usually uses a lanthanide donor and a delayed reading to cut background.)

The target of assay [2] is T2, human thyroid receptor alpha ligand-binding domain (LBD) (Homo sapiens, UniProt P10827).
T2 construct: purchased Invitrogen
Nature of the assay: TR-FRET thyroid receptor alpha coactivator assay (THR biochemical assay, Assay 1). To be noted: for EC50: Table 4, THR-alpha, read-out: Activity category Assay 1 (EC50, THR-alpha agonist activity); for Emax: read-out: Activity category Assay 1 THRα (Emax). Put shortly: as §1

Assay [3] has as its system CPT1A gene expression in Huh-7 cells. Nature of the assay: Huh-7 differential gene expression, CPT1A RT-qPCR (Assay 3). Type of assay: cell-based. To be noted: Homo sapiens, Huh-7, 24 h, Table 6, Huh-7 cells, CPT1A, 24 hr treatment; for EC50: read-out: Activity category Assay 3 EC50; for Emax: read-out: Activity category Assay 3 Emax. As for the experimental part:
Huh-7 Differential Gene Expression (Assay 3)
Fetal bovine serum (FBS) was incubated with washed resin (50 mg resin/mL FBS; resin weight is dry weight of resin prior to washing) for 5 hr at room temperature on a rotor. The FBS was separated from the resin via centrifugation and incubated with new, washed resin for 18 h at room temperature on a rotor.
Cell Culture and Drug Treatment
Huh-7 cells were cultured in DMEM (10-013-CM, Corning) supplemented with 10% FBS and 1% Pen-Strep at 37° C. under 5% C02. When 70-80% confluence was reached, the cells were removed by trypsinization. The medium was aspirated from the cell culture dish, the cell monolayer was washed with 1×PBS, and 0.05% trypsin, 0.53 mM EDTA (25-052-CV, Corning) solution was added to the dish. After 3 min incubation, the cells were detached completely by repeatedly pipetting solution onto the monolayer. Equal volume of DMEM supplemented with 10% rFBS and 1% Pen-Strep (TH-depleted DMEM) was added to the dish to inactivate the trypsin. The cell suspension was centrifuged at 350×g at room temperature for 3 min. The supernatant was aspirated out and the cell pellet was resuspended in TH-depleted DMEM. […] After 24 hr incubation, the media was replaced with treatment media. All compounds were serially diluted in DMSO and final concentrations were reached by dilution in TH-depleted DMEM (0.1% DMSO). The cells were incubated in treatment media for 24 hr. Treatments were performed in biological duplicates.
After 24 hr in treatment media, the cells were lysed directly on the culture plates and cDNA was produced using the TaqMan™ Fast Advanced Cells-to-CT™ Kit (A35374, Invitrogen) and following the manufacturer's protocol. RT-qPCR for CPT1A (Hs00912671_m1) and two housekeeping genes, ACTB (Hs01060665_g1) and TFG (Hs02832013_g1), was performed using TaqMan™ Fast Advanced Master Mix. RT-qPCR reactions were run on the qTOWER^3 84 G (Analytik Jena) in technical duplicates.
ΔRn values were obtained from the qPCRsoft384 1.0 software and CPT1A gene expression was quantified via the 2-ΔΔCt method. Dose-response curves were generated using GraphPad Prism 8 using four parameter logistic equation without top constraint to derive EC50 and Emax.
On the technique in general: Quantitative PCR measures a nucleic acid by following its amplification.

A value given as a limit tells only on which side of the number the result lay.

T2 sequence (P10827 163-410 isoform P10827-2 limits assumed, other chains not shown): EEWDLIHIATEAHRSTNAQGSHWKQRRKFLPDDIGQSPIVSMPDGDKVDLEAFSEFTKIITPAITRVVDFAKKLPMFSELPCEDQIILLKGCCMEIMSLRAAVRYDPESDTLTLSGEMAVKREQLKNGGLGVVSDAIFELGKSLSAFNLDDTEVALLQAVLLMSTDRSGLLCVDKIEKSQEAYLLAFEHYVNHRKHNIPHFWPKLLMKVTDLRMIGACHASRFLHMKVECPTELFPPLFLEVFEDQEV

What is called EC50 is the concentration at which the effect is half-maximal. By Emax is commonly meant the greatest response seen or fitted, relative to the assay's reference. Turning to `Cc1cc(-n2nc(C#N)c(=O)[nH]c2=O)cc(C)c1Cc1ccc2[nH]cc(C(C)C)c2n1` [Compound 31, 2-[4-[(3-isopropyl-1H-pyrrolo[3,2-b]pyridin-5-yl)methyl]-3,5-dimethyl-phenyl]-3,5-dioxo-1,2,4-triazine-6-carbonitrile], the EC50 in assay [1] is less than 50 nM; in assay [2], less than 50 nM; in assay [3] it was 100 to 1000 nM. For the same molecule, the Emax in assay [1] (Table 5, Assay 1, THRβ) is 50 to 75%; in assay [2] (Table 5, THRα), less than 50%; in assay [3] it was greater than 75%.
As for `Nc1nn(-c2cc(Cl)c(Oc3ccc4c(c3)C3(CCCC3)C(=O)N4)c(Cl)c2)c(=O)[nH]c1=O` [Compound 83], the EC50 in assay [1] is less than 50 nM; in assay [2] it was less than 50 nM; in assay [3] it was less than 100 nM. The Emax in assay [1] (Table 5, Assay 1, THRβ) was 50 to 75%; in assay [2] (Table 5, THRα), 50 to 75%; in assay [3], greater than 75%.
In the case of `Nc1nn(-c2cc(Cl)c(Oc3cc(C4CC5(CC5)C4)c(=O)[nH]n3)c(Cl)c2)c(=O)[nH]c1=O` [Compound 93], the EC50 in assay [1] was 50 to 250 nM; in assay [2] it was 250 to 1000 nM; in assay [3], less than 100 nM. The Emax is less than 50% in assay [1] (Table 5, Assay 1, THRβ); less than 50% in assay [2] (Table 5, THRα); 50 to 75% in assay [3].
In the case of `Nc1nn(-c2cc(Cl)c(Oc3n[nH]c(=O)cc3-c3ccc4ccccc4c3)c(Cl)c2)c(=O)[nH]c1=O` [Compound 67-A, 6-amino-2-(3,5-dichloro-4-((4-(naphthalen-2-yl)-6-oxo-1,6-dihydropyridazin-3-yl)oxy)phenyl)-1,2,4-triazine-3,5(2H,4H)-dione], the EC50 in assay [1] was less than 50 nM; in assay [2] it was greater than 25000 nM; in assay [3], 100 to 1000 nM. Further, the maximum response (Emax) in assay [1] (Table 5, Assay 1, THRβ) was less than 50%; in assay [2] (Table 5, THRα), less than 50%; in assay [3], less than 50%.
As for `CC(c1ccccc1)c1cc(Oc2c(Cl)cc(-n3nc(N)c(=O)[nH]c3=O)cc2Cl)n[nH]c1=O` (single isomer, unassigned) [Compound 164, 6-Amino-2-(3,5-dichloro-4-((6-oxo-5-(1-phenylethyl)-1,6-dihydropyridazin-3-yl)oxy)phenyl)-1,2,4-triazine-3,5(2H,4H)-dione], the EC50 in assay [1] was less than 50 nM; in assay [2], 50 to 250 nM; in assay [3], less than 100 nM. Moreover, the “Activity category Assay 1 THRβ (Emax)” value in assay [1] (Table 5, Assay 1, THRβ) is reported as “C (Emax<50%)”. Further, the “Activity category Assay 1 THRα (Emax)” value in assay [2] (Table 5, THRα) was “C (Emax<50%)”. The Emax in assay [3] was in the range of 50 to 75%.
In the case of `Nc1nn(-c2cc(Cl)c(Oc3cc(-c4ccc5ccccc5c4)c(=O)[nH]n3)c(Cl)c2)c(=O)[nH]c1=O` [Compound 67, 6-amino-2-(3,5-dichloro-4-[[5-(naphthalen-2-yl)-6-oxo-1H-pyridazin-3-yl]oxy]phenyl)-4H-1,2,4-triazine-3,5-dione], the EC50 in assay [1] is 50 to 250 nM; in assay [2], 1000 to 25000 nM; in assay [3] it was greater than 100 nM. Further, the Emax in assay [1] (Table 5, Assay 1, THRβ) was less than 50%; in assay [2] (Table 5, THRα), less than 50%; in assay [3] it was greater than 75%.
For `Cc1cc(-n2nc(C#N)c(=O)[nH]c2=O)cc(C)c1Cc1ccc2c(c1)C1(CC1)C(=O)N2` [Compound 148, 2-(3,5-dimethyl-4-((2′-oxospiro[cyclopropane-1,3′-indolin]-5′-yl)methyl)phenyl)-3,5-dioxo-2,3,4,5-tetrahydro-1,2,4-triazine-6-carbonitrile], the EC50 in assay [1] is less than 50 nM; in assay [2], less than 50 nM; in assay [3], 100 to 1000 nM. In addition, the Emax in assay [1] (Table 5, Assay 1, THRβ) is less than 50%; in assay [2] (Table 5, THRα), 50 to 75%; in assay [3], greater than 75%.
For the molecule `Nc1nn(-c2cc(Cl)c(Oc3n[nH]c(=O)cc3-c3ccc4c(c3)CCCC4)c(Cl)c2)c(=O)[nH]c1=O` [Compound 72-A, 6-amino-2-(3,5-dichloro-4-[[6-oxo-4-(5,6,7,8-tetrahydronaphthalen-2-yl)-1H-pyridazin-3-yl]oxy]phenyl)-4H-1,2,4-triazine-3,5-dione], the EC50 in assay [1] was less than 50 nM; in assay [2], 50 to 250 nM; in assay [3] it was 100 to 1000 nM. The Emax was less than 50% in assay [1] (Table 5, Assay 1, THRβ); less than 50% in assay [2] (Table 5, THRα); greater than 75% in assay [3].
